Results published in patent US11951149B2, “Intranasal vasopressin treatment of social deficits in autism” (The Board of Trustees of the Leland Stanford Junior …, priority 2018, dated 2024).

Legend:
children with ASD [1] = assay: Adverse events assessed by the DOTES and OAS, 4-week trial; format: in vivo, human
Experimental: (§1) Commercially available injectable sterile AVP was used in this study. It was initially purchased from JHP Pharmaceuticals (Rochester, MI), which was subsequently acquired by Par Sterile Products (Chestnut Ridge, NY) in 2014. The placebo solution was prepared by Koshland Pharm (San Francisco, CA) and consisted of ingredients used in the active solution except the AVP compound. A pharmacist transferred 25 mL of AVP (20 International Units (IU)/mL) or placebo solutions into sterile amber glass bottles with metered (0.1 mL/per puff) nasal spray applicators to ensure that the AVP and placebo applicators were visually indistinguishable to the research team. These applicators were coded and given to the Stanford Health Care's Investigational Drug Service (IDS) for refrigerated storage (2-8° C.) and subsequent dispensing. Following the first AVP dose (see below), the dose escalation regimen for all participants involved administration of 4 IU twice daily (or BID) of AVP during week 1 and 8 IU BID of AVP during week 2. Participants aged 6 to 9.5 years then received 12 IU BID of AVP during weeks 3 and 4, while participants aged 9.6 to 12.92 years received 16 IU BID of AVP during weeks 3 and 4.
(§2) Parents were trained in the clinic by research staff to administer the nasal spray to their child. The first dose was administered in the ADDC under the direct supervision of the research team (with the first dose being 12 IU for participants aged 6 to 9.5 years and 16 IU for participants aged 9.6 to 12.92 years). Vital signs were monitored before, and 20 minutes after, initial single-dose nasal spray administration to monitor for acute, unanticipated reactions to AVP. Participants' parents then received two 25 mL nasal spray bottles containing either AVP or placebo for 4 weeks of at-home dispensing (as described above), for which they were responsible for their child's continued twice daily dosing. Parents were instructed to keep the bottles refrigerated with only brief room temperature excursions (i.e., for dosing). Participants underwent weekly safety/tolerability assessments in the clinic to monitor for adverse events. On completion of the 4-week treatment period, behavioral data, safety/tolerability data, and blood samples were again collected. After completion of the trial, participants randomized to the placebo group were invited to participate in an optional open-label 4-week AVP treatment phase to ensure that all children had the opportunity to receive AVP treatment.
(§3) Throughout the trial, safety and tolerability were assessed weekly using the following measurements: vital signs, 12-lead electrocardiogram, clinical chemistry labs, and height and weight. Side effects were evaluated with the DOTES (51), and modified to assess potential side effects that might be related to AVP such as hyponatremia/water intoxication. Finally, based on animal studies showing that AVP can induce aggressive behavior under some circumstances (39, 40), the OAS was used to monitor for observable aggressive or violent behavior in this trial (52).
One-way LS-GLMs were used to test the change from baseline between the AVP and placebo treatment groups following 4-week treatment for adverse events and safety measures. Fisher's exact Test was used to test for differences between treatment conditions for participant characteristics and concomitant medications. Suitable transformations were applied as needed.

children with ASD [2] = assay: Vital signs, change from baseline, 4-week trial; format: in vivo, human; settings: after 4-week treatment
Experimental: as §1, §2, §3
(§4) Treatment effect generalizability was evaluated using: 1) the RBS-R which measures a comprehensive list of repetitive and stereotyped behaviors (61); and 2) The Spence Children's Anxiety Scale which assesses the severity of trait anxiety symptoms broadly in line with DSM dimensions of anxiety disorder (62). Anxiety was selected as an outcome measure due to its significant comorbidity with ASD (63). Finally, safety and tolerability were evaluated using: 1) the DOTES (51); and 2) change from baseline in electrocardiogram, clinical chemistry labs, vital signs (i.e., blood pressure, heart rate, temperature), as well as height and weight.
(§5) One-way LS-GLMs were used to test the change from baseline between the AVP and placebo treatment groups following 4-week treatment for adverse events and safety measures. […]

children with ASD [3] = assay: 12-lead electrocardiogram, change from baseline, 4-week trial; format: in vivo, human; settings: after 4-week treatment
Experimental: as §1, §2, §3, §4, §5

children with ASD [4] = assay: Clinical chemistry, change from baseline, 4-week trial; format: in vivo, human; settings: after 4-week treatment
Experimental: as §1, §2, §3
Whole blood was drawn from the child's antecubital region by a pediatric phlebotomist using standard protocols at Lucile Packard Children's Hospital outpatient laboratory. A portion of the sample was collected per standard laboratory protocols and sent for clinical chemistry analysis. To evaluate AVP concentrations, whole blood was also collected into chilled EDTA-treated vacutainer tubes and immediately placed on wet ice. Samples were promptly centrifuged (1600×g at 4° C. for 15 min), the plasma fraction aliquoted into polypropylene tubes, and flash-frozen on dry ice. Whole blood was also collected into PAXgene RNA tubes (Qiagen, CA) and processed per manufacturer instruction to evaluate neuropeptide receptor gene expression [i.e., oxytocin receptor (OXTR) and AVPR1A]. All samples were stored at −80° C. until quantification. […]

children with ASD [5] = assay: Height and weight, change from baseline, 4-week trial; format: in vivo, human; settings: after 4-week treatment
Experimental: Commercially available injectable sterile AVP was used in this study. It was initially purchased from JHP Pharmaceuticals (Rochester, MI), which was subsequently acquired by Par Sterile Products (Chestnut Ridge, NY) in 2014. The placebo solution was prepared by Koshland Pharm (San Francisco, CA) and consisted of ingredients used in the active solution except the AVP compound. A pharmacist transferred 25 mL of AVP (20 International Units (IU)/mL) or placebo solutions into sterile amber glass bottles with metered (0.1 mL/per puff) nasal spray applicators to ensure that the AVP and placebo applicators were visually indistinguishable to the research team. […]
Parents were trained in the clinic by research staff to administer the nasal spray to their child. […] Vital signs were monitored before, and 20 minutes after, initial single-dose nasal spray administration to monitor for acute, unanticipated reactions to AVP. […]
Throughout the trial, safety and tolerability were assessed weekly using the following measurements: vital signs, 12-lead electrocardiogram, clinical chemistry labs, and height and weight. Side effects were evaluated with the DOTES (51), and modified to assess potential side effects that might be related to AVP such as hyponatremia/water intoxication. […]

[6] = intranasal administration; cited from earlier work
[7] = system: high-functioning adults with ASD; settings: single dose intravenous, cited from earlier work
ASD in children = assay: Intranasal administration of desmopressin in children with ASD; format: in vivo, human
[8] = Dermatological, 4-week treatment, N = 17
[9] = Gastrointestinal, 4-week treatment, N = 17
[10] = General, 4-week treatment, N = 17
[11] = HEENT, 4-week treatment, N = 17
[12] = Neurological/Psychiatric, 4-week treatment, N = 17
[13] = Renal, 4-week treatment, N = 17
[14] = post hoc sub-test, not corrected for multiple comparisons

NC(=O)CC[C@@H]1NC(=O)[C@H](Cc2ccccc2)NC(=O)[C@H](Cc2ccc(O)cc2)NC(=O)[C@@H](N)CSSC[C@@H](C(=O)N2CCC[C@H]2C(=O)N[C@@H](CCCN=C(N)N)C(=O)NCC(N)=O)NC(=O)[C@H](CC(N)=O)NC1=O [AVP, arginine vasopressin]
Tolerability (children with ASD [1]; 4-week intranasal treatment): well tolerated with minimal adverse effects
Adverse event rates compared to placebo-treated group (DOTES, OAS) (children with ASD [1]; 4-week treatment, parent ratings): no significant differences
Adverse event: Bug bite (children with ASD [1]; [8]): 1 (6%) counts and percentages
Adverse event: Skin burn (children with ASD [1]; [8]): 0 (0%) counts and percentages
Adverse event: Skin rash (children with ASD [1]; [8]): 1 (6%) counts and percentages
Adverse event: Constipation (children with ASD [1]; [9]): 1 (6%) counts and percentages
Adverse event: Decreased appetite (children with ASD [1]; [9]): 4 (24%) counts and percentages
Adverse event: Diarrhea (children with ASD [1]; [9]): 0 (0%) counts and percentages
Adverse event: Nausea/vomiting (children with ASD [1]; [9]): 2 (12%) counts and percentages
Adverse event: Body ache (children with ASD [1]; [10]): 1 (6%) counts and percentages
Adverse event: Cough (children with ASD [1]; [10]): 1 (6%) counts and percentages
Adverse event: Fever (children with ASD [1]; [10]): 2 (12%) counts and percentages
Adverse event: Blurred vision (children with ASD [1]; [11]): 1 (6%) counts and percentages
Adverse event: Cold sore (children with ASD [1]; [11]): 0 (0%) counts and percentages
Adverse event: Dry mouth (children with ASD [1]; [11]): 1 (6%) counts and percentages
Adverse event: Ear infection (children with ASD [1]; [11]): 0 (0%) counts and percentages
Adverse event: Nasal congestion (children with ASD [1]; [11]): 3 (18%) counts and percentages
Adverse event: Runny nose (children with ASD [1]; [11]): 0 (0%) counts and percentages
Adverse event: Sore throat (children with ASD [1]; [11]): 0 (0%) counts and percentages
Adverse event: Aggression (children with ASD [1]; [12]): 1 (6%) counts and percentages
Adverse event: Akathisia (children with ASD [1]; [12]): 1 (6%) counts and percentages
Adverse event: Decreased motor activity (children with ASD [1]; [12]): 1 (6%) counts and percentages
Adverse event: Depressive affect (children with ASD [1]; [12]): 2 (12%) counts and percentages
Adverse event: Dizziness (children with ASD [1]; [12]): 0 (0%) counts and percentages
Adverse event: Drowsiness (children with ASD [1]; [12]): 1 (6%) counts and percentages
Adverse event: Excitement/agitation (children with ASD [1]; [12]): 4 (24%) counts and percentages
Adverse event: Head banging (children with ASD [1]; [12]): 1 (7%) counts and percentages
Adverse event: Headache (children with ASD [1]; [12]): 2 (12%) counts and percentages
Adverse event: Increased motor activity (children with ASD [1]; [12]): 4 (24%) counts and percentages
Adverse event: Insomnia (children with ASD [1]; [12]): 4 (24%) counts and percentages
Adverse event: Lethargy/tiredness (children with ASD [1]; [12]): 0 (0%) counts and percentages
Adverse event: Bed wetting (children with ASD [1]; [13]): 1 (6%) counts and percentages
Adverse event: Increased urination (children with ASD [1]; [13]): 1 (6%) counts and percentages
Change from baseline LSM +/− SE: BP Change Diastolic (Standin-Sitting) (children with ASD [2]): −3.1 ± 2.65
Change from baseline LSM +/− SE: BP Change Systolic (Standing-Sitting) (children with ASD [2]): −3.6 ± 2.76
Change from baseline LSM +/− SE: BP, Diastolic, Sitting (children with ASD [2]): 3.2 ± 2.09 mmHg
Change from baseline LSM +/− SE: BP, Diastolic, Standing (children with ASD [2]): 0.1 ± 2.31 mmHg
Change from baseline LSM +/− SE: BP, Systolic, Sitting (children with ASD [2]): 5.5 ± 2.53 mmHg
Change from baseline LSM +/− SE: BP, Systolic, Standing (children with ASD [2]): 1.9 ± 2.38 mmHg
Change from baseline LSM +/− SE: Pulse change (children with ASD [2]): 2.1 ± 2.75 beats per minute
Change from baseline LSM +/− SE: Pulse sitting (children with ASD [2]): 1.9 ± 3.87 beats per minute
Change from baseline LSM +/− SE: Pulse standing (children with ASD [2]): 4.0 ± 3.57 beats per minute
Change from baseline LSM +/− SE: Temperature (children with ASD [2]): 0.2 ± 0.17 ° F.
Changes from baseline in vital signs (children with ASD [2]): No significant changes from baseline
Changes from baseline in 12-lead electrocardiogram (children with ASD [3]): No significant changes from baseline
Change from baseline LSM +/− SE: Bazett’s Corrected QT Interval (children with ASD [3]; electrocardiogram): -1.9 ± 5.07 ms
Change from baseline LSM +/− SE: Heart Rate (children with ASD [3]; electrocardiogram): −2.5 ± 3.75 bpm
Change from baseline LSM +/− SE: P Duration (children with ASD [3]; electrocardiogram): -2.6 ± 5.76 ms
Change from baseline LSM +/− SE: PR Intervals (children with ASD [3]; electrocardiogram): -4.6 ± 6.40 ms
Change from baseline LSM +/− SE: QRS Interval (children with ASD [3]; electrocardiogram): 0.4 ± 1.55 ms
Change from baseline LSM +/− SE: QT Interval (children with ASD [3]; electrocardiogram): 3.5 ± 5.53 ms
Change from baseline LSM +/− SE: Anion Gap (children with ASD [4]): -0.65 ± 0.78 mmol/L
Change from baseline LSM +/− SE: CO2 (children with ASD [4]): -0.12 ± 0.57 mmol/L
Change from baseline LSM +/− SE: Calcium (children with ASD [4]): 0.047 ± 0.07 mg/dL
Change from baseline LSM +/− SE: Chloride (children with ASD [4]): 1.0 ± 0.56 mmol/L
Change from baseline LSM +/− SE: Creatine (children with ASD [4]): -0.017 ± 0.03 mg/dL
Change from baseline LSM +/− SE: Glucose (children with ASD [4]): 2.2 ± 4.41 mg/dL
Change from baseline LSM +/− SE: Osmolality (Serum) (children with ASD [4]): 0.18 ± 1.01 mOsm/kg
Change from baseline LSM +/− SE: Osmolality (Urine) (children with ASD [4]): 8.5 ± 82.6 mOsm/kg
Change from baseline LSM +/− SE: Potassium (children with ASD [4]): 0.15 ± 0.11 mmol/L
Change from baseline LSM +/− SE: Sodium (children with ASD [4]): 0.24 ± 0.63 mmol/L
Change from baseline LSM +/− SE: Urea Nitrogen (children with ASD [4]): -1.3 ± 0.78 mg/dL
Changes from baseline in clinical chemistry (children with ASD [4]): No significant changes from baseline
Change from baseline LSM +/− SE: Height (children with ASD [5]): 0.8 ± 0.23 centimeters
Changes from baseline in physiological measures (children with ASD [5]): No significant changes from baseline
Cerebrospinal fluid (CSF) concentrations of measured AVP [6]: elevated

CN(C)CCn1cc(C(=O)N2CCC3(CC2)OCc2ccccc23)c2ccc(Cl)cc21 [RG7713]
Improvements on overall composite tests [7]: non-significant
Ability to detect lust on an affective speech recognition task [7, 14]: reduced
Biological motion orienting preference [7, 14]: increased

NC(=O)CC[C@@H]1NC(=O)[C@H](Cc2ccccc2)NC(=O)[C@H](Cc2ccc(O)cc2)NC(=O)CCSSC[C@@H](C(=O)N2CCC[C@H]2C(=O)N[C@H](CCCN=C(N)N)C(=O)NCC(N)=O)NC(=O)[C@H](CC(N)=O)NC1=O [desmopressin, 1-deamino-8-D-arginine-vasopressin]
Treatment of ASD in children (ASD in children): not found to effectively treat ASD
